Test results from ChEMBL document CHEMBL3044610, “Khayanolides, rearranged phragmalin limonoid antifeedants from Khaya senegalensis” (Tetrahedron, 2001).
Calls of active or inactive are those of the source. No cut-off for these calls is given here.

Experiments:
Format in all cases: functional, organism-based
Spodoptera littoralis [1] = assay: Antifeedant activity against third-instar larva of Spodoptera littoralis fed on compound-treated Chinese cabbage leaf at 500 ppm by leaf-disk method
Spodoptera littoralis [2] = assay: Antifeedant activity against third-instar larva of Spodoptera littoralis fed on compound-treated Chinese cabbage leaf at 300 ppm by leaf-disk method
Spodoptera littoralis [3] = assay: Antifeedant activity against third-instar larva of Spodoptera littoralis fed on compound-treated Chinese cabbage leaf at 1000 ppm by leaf-disk method

COC(=O)[C@H](O)[C@H]1[C@@]2(C)C[C@]3(O)[C@H]4[C@@H](O[C@]56CC(=O)O[C@H](c7ccoc7)[C@]5(C)CC[C@H]([C@]13C)[C@]46O)[C@H]2O
Activity (Spodoptera littoralis [1]): Active

CC1(C)C(=O)[C@@H]2C[C@@]34O[C@]2(O)[C@]2(COC(=O)C[C@@H]12)[C@H]3CC[C@]1(C)[C@H]4CC(=O)O[C@H]1c1ccoc1
Activity (Spodoptera littoralis [2]): Active

C=C1[C@@H]2CC[C@@]3(C)[C@H](c4ccoc4)OC(=O)C[C@]13O[C@H]1CC(=O)C(C)(C)[C@H](CC(=O)OC)[C@]12C
Activity (Spodoptera littoralis [1]): Active

C=C1[C@@H]2CC[C@@]3(C)[C@H](c4ccoc4)OC(=O)C[C@]13O[C@H]1CC(=O)C(C)(C)[C@H](C(OC(C)=O)C(=O)OC)[C@]12C (some centres not stated)
Activity (Spodoptera littoralis [1]): Active

COC(=O)[C@H](O)[C@H]1[C@]2(C)C[C@]3(O)[C@@H](C(=O)[C@H]2O)[C@]2(O)C4=CC(=O)O[C@@H](c5ccoc5)[C@]4(C)CC[C@@H]2[C@]13C
Activity (Spodoptera littoralis [3]): Active

COC(=O)[C@H](O)[C@H]1[C@]2(C)C[C@]3(O)[C@H](C(=O)[C@H]2O)[C@]24O[C@]25CC(=O)O[C@H](c2ccoc2)[C@]5(C)CC[C@@H]4[C@]13C
Activity (Spodoptera littoralis [2]): Active

C=C1[C@@H]2CC[C@@]3(C)[C@H](c4ccoc4)OC(=O)C[C@]13O[C@H]1CC(=O)C(C)(C)[C@H](C(O)C(=O)OC)[C@]12C (some centres not stated)
Activity (Spodoptera littoralis [1]): Active
